Assay results taken from US7981923B2, “Tetralin and indane derivatives and uses thereof” (Roche Palo Alto LLC, priority 2006, dated 2011).

Target: T1, recombinant human 5-HT6 receptor (Homo sapiens, UniProt P50406)
T1 construct: expressed in transfected cells; membranes
Assay: Radioligand binding, [3H]LSD competition in HEK293 cell membranes
Settings: competition for [3H]LSD binding, membranes of HEK293 cells expressing recombinant human 5-HT6 receptor; read-out: pKi for 5-HT6 (converted)
Experimental: The binding activity of compounds of this invention in vitro was determined as follows. Duplicate determinations of 5-HT6 ligand affinity were made by competing for binding of [^3H]LSD in cell membranes derived from HEK293 cells stably expressing recombinant human 5-HT6 receptor. Duplicate determinations of 5-HT2A ligand affinity were made by competing for binding of [^3H]Ketanserin (3-(2-(4-(4-fluorobenzoyl)piperidinol)ethyl)-2,4(1H,3H)-quinazolinedione) in cell membranes derived from CHO-K1 cells stably expressing recombinant human 5-HT2A receptor. Membranes were prepared from HEK 293 cell lines by the method described by Monsma et al., Molecular Pharmacology, Vol. 43 pp. 320-327 (1993), and from CHO-K1 cell lines as described by Bonhaus et al., Br J Pharmacol. June; 115 (4):622-8 (1995).
For estimation of affinity at the 5-HT2A receptor all determinations were made in assay buffer containing 50 mM Tris-HCl, 5 mM ascorbic acid, 4 mM CaCl2, pH 7.4 at 32° C., in a 250 microliter reaction volume.
Assay tubes containing [^3H] […] LSD or [^3H]Ketanserin were determined as radioactive counts per minute using Packard TopCount.
Displacement of [^3H]LSD or [^3H]Ketanserin from the binding sites was quantified by fitting concentration-binding data to a 4-parameter logistic equation: […]

T1 sequence (P50406 whole entry): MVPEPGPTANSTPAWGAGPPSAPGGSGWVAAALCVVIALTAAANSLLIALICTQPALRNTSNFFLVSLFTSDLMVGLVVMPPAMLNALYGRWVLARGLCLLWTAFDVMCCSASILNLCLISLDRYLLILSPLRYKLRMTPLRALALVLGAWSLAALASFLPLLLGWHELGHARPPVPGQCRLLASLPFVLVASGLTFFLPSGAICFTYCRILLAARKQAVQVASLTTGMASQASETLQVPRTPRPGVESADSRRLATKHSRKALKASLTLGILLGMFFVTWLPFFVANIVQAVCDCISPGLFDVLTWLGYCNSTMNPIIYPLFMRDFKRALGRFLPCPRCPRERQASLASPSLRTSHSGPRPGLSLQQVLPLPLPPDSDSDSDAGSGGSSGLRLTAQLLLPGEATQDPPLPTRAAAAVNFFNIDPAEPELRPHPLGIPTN

Ki: ~100 pM
Structure (SMILES): NC[C@@H]1CCCc2cc(S(=O)(=O)c3cccc(F)c3)cc(F)c21 (stereo in doubt) [C-[8-Fluoro-6-(3-fluoro-benzenesulfonyl)-1,2,3,4-tetrahydro-naphthalen-1-yl]-methylamine]
